In ChEMBL document CHEMBL1671774, “An efficient synthesis of the precursor of AI-2, the signalling molecule for inter-species quorum sensing” (Bioorg Med Chem, 2011):
Activity calls are given as the source filed them. No cut-off for these calls is given here.

How the values were obtained:
[1] = system: Escherichia coli; test: Induction of LsrB-dependent quorum sensing in Escherichia coli KX1446 assessed as expression of Lsr system at 40 uM by beta-galactosidase reporter assay
[2] = system: Escherichia coli; test: Ratio of compound activity over DPD activity for induction of LsrB-dependent quorum sensing in Escherichia coli KX1446
[3] = molecular target: Autoinducer 2-binding periplasmic protein LuxP (Vibrio harveyi) (UniProt P54300); test: Induction of LuxP-dependent quorum sensing in Vibrio harveyi MM32 assessed as induction of bioluminescence intensity after 4 hrs
[4] = molecular target: Autoinducer 2-binding periplasmic protein LuxP (Vibrio harveyi) (UniProt P54300); test: Binding affinity to LuxP in Vibrio harveyi MM32 by FRET method

Sequence of Autoinducer 2-binding periplasmic protein LuxP (Vibrio harveyi) (P54300 whole entry): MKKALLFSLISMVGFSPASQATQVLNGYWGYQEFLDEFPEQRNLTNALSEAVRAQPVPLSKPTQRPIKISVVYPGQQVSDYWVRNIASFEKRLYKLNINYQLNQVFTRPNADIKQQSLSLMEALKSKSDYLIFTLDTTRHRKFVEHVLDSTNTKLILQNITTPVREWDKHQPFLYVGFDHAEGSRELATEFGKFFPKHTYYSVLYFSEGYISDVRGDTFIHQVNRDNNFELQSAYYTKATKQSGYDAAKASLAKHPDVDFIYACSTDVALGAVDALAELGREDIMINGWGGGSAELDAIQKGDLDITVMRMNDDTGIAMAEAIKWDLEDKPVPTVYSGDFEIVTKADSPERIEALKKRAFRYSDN

| SMILES | Activity [1] | Ratio [2] | Activity [3] | Activity [4] |
| --- | --- | --- | --- | --- |
| C[C@@]1(O)OC[C@H](O)C1(O)O | Active | 6 | – | – |
| C[C@]12OC[C@H](O)[C@@]1(O)O[B-](O)(O)O2 | – | – | Active | – |
| CC(=O)C(=O)[C@@H](O)CO | inactive | – | Active | Active |
